Results from US9221862B2, “Erythromycin ethylsuccinate crystalline hydrate, preparation and uses thereof” (priority 2011, dated 2015).

Experiment: Hygroscopicity test according to CP2005 (RH 70%, 25° C.)
Assay type: physicochemical
Conditions: sampling time 48 h, 5 grams of sample
Protocol: The erythromycin ethylsuccinate crystalline hydrate according to the present invention was stable during storage. The above sample was sealed in vials and subjected to accelerated stability test at 30° C. using HPLC (C18 reverse phase column, 4.6×250 mm, 5 μm), mobile phase: 10 mmol/L sodium dodecyl sulfate solution containing 0.1% triethylamine (pH adjusted to 3.4 with phosphoric acid)—acetonitrile (55:45), detection wavelength was 205 nm, and the flow rate is 1.0 ml/min, and the change of relevant substances and content was detected. […] According to CP2005, 5 grams of the sample of the present invention was, at 25° C., placed in a relative humidity of 70% in the test for hygroscopicity. It is surprising that erythromycin ethylsuccinate hydrate leads to less hygroscopic weight gain. […] In addition, the deliquescence of anhydride makes it necessary to isolate from air during processing to prevent adhesions, while the hydrate has good sliding properties, thereby improving the operability of the formulation.

Erythromycin Ethylsuccinate 0.5 H2O Hydrate
hygroscopic weight gain %, compared to 0 h: 0.2%

Erythromycin Ethylsuccinate 0.25 H2O Hydrate
hygroscopic weight gain %, compared to 0 h: 0.59%
